Test results from PubChem BioAssay (NCI).
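Cells were grown in 96-well plates and exposed to each compound for 48 hours at five concentrations; endpoints were interpolated linearly between bracketing concentrations, or set to the highest concentration if not reached. TGI is the concentration that stops growth completely.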

Tests used:
Assay in all cases: NCI anticancer screen, dose series, 48 h
A498 renal = tested on: A498 renal
ACHN renal = tested on: ACHN renal
EKVX NSCLC = tested on: EKVX NSCLC
HOP-62 NSCLC = tested on: HOP-62 NSCLC
IGROV1 ovarian = tested on: IGROV1 ovarian
LOX IMVI melanoma = tested on: LOX IMVI melanoma
MOLT-4 leukemia = tested on: MOLT-4 leukemia
OVCAR-3 ovarian = tested on: OVCAR-3 ovarian
OVCAR-4 ovarian = tested on: OVCAR-4 ovarian
SF-268 CNS = tested on: SF-268 CNS
SF-295 CNS = tested on: SF-295 CNS
SK-MEL-28 melanoma = tested on: SK-MEL-28 melanoma
SN12C renal = tested on: SN12C renal
SNB-19 CNS = tested on: SNB-19 CNS
SW-620 colon = tested on: SW-620 colon
U251 CNS = tested on: U251 CNS
HL-60(TB) leukemia = tested on: HL-60(TB) leukemia
MCF7 breast = tested on: MCF7 breast

SMILES	TGI (A498 renal)	TGI (ACHN renal)	TGI (EKVX NSCLC)	TGI (HOP-62 NSCLC)	TGI (IGROV1 ovarian)	TGI (LOX IMVI melanoma)	TGI (MOLT-4 leukemia)	TGI (OVCAR-3 ovarian)	TGI (OVCAR-4 ovarian)	TGI (SF-268 CNS)	TGI (SF-295 CNS)	TGI (SK-MEL-28 melanoma)	TGI (SN12C renal)	TGI (SNB-19 CNS)	TGI (SW-620 colon)	TGI (U251 CNS)	TGI (HL-60(TB) leukemia)	TGI (MCF7 breast)
O=c1[nH]nc2c3n[nH]c(=O)n3c3ccccc3n12	> 100 µM	> 100 µM	> 100 µM	> 100 µM	> 100 µM	> 100 µM	> 100 µM	> 100 µM	> 100 µM	> 100 µM	> 100 µM	> 100 µM	> 100 µM	> 100 µM	> 100 µM	> 100 µM		
CC(=O)NC1C(OCc2ccccc2)OC(CO)C(O)C1OCC(=O)NC(C)C(=O)NC(CCC(=O)OCCNC(=O)c1cccc2cc3ccccc3nc12)C(N)=O (stereo not drawn)		39.3 µM	62.2 µM	68.9 µM	48.9 µM	26.8 µM	> 100 µM	43.3 µM	48.7 µM	67 µM	68.2 µM	43.3 µM	> 100 µM	78.8 µM	> 100 µM	53.5 µM	57.7 µM	> 100 µM
O=C1c2ccccc2C(=O)N1C/C=N/NS(=O)(=O)c1ccc(Cl)cc1	> 100 µM	> 100 µM	> 100 µM	> 100 µM	> 100 µM	> 100 µM	> 100 µM		> 100 µM	> 100 µM	> 100 µM		> 100 µM	> 100 µM	> 100 µM	> 100 µM	> 100 µM	
CN1C(=O)c2cccc3c([N+](=O)[O-])ccc(c23)C1=O	5.64 µM	21.7 µM	29.4 µM	24.7 µM	9.43 µM	18.9 µM	28.2 µM	11.4 µM	25.9 µM	23.5 µM	28.1 µM	32.9 µM	24.9 µM	28 µM	6.12 µM	13.8 µM		
CCC(=O)NCC1(c2c[nH]c3ccccc23)SCCS1	> 100 µM	> 100 µM	> 100 µM	> 100 µM	> 100 µM	> 100 µM	> 100 µM	> 100 µM	> 100 µM	> 100 µM	> 100 µM	> 100 µM	> 100 µM	> 100 µM	> 100 µM	> 100 µM	> 100 µM	
CSc1ccc2c(cc1=O)C(NC(=O)c1cc(O)c(OC(=O)O)c(O)c1)CCc1cc(O)c(O)c(O)c1-2 (stereo not drawn)	> 90 µM	> 90 µM	38.8 µM	64.5 µM	37.7 µM	24.8 µM	35.6 µM	40 µM	40.9 µM	43 µM	36.5 µM	56.2 µM	26.7 µM	> 90 µM	29.3 µM	32.9 µM	70.3 µM	
c1csc(-c2cc(-c3ccsc3)c(-c3cccs3)s2)c1	> 100 µM	> 100 µM	> 100 µM	> 100 µM			> 100 µM	> 100 µM	> 100 µM	> 100 µM	> 100 µM	> 100 µM	> 100 µM	> 100 µM	> 100 µM	> 100 µM		89.8 µM
